Reference: ChEMBL document CHEMBL1155838, “Biphenyl amide p38 kinase inhibitors 3: Improvement of cellular and in vivo activity” (Bioorg Med Chem Lett, 2008)

How the values were obtained:
Format in all cases: ADME, organism-based
[1] = Volume of distribution at steady state in Lewis rat at 0.5 mg/kg, iv; design: dose 0.5 mg/kg, route intravenous; settings: in vivo, read-out: Vdss
[2] = Clearance in Lewis rat plasma at 0.5 mg/kg, iv; design: dose 0.5 mg/kg, route intravenous
[3] = Oral bioavailability in Lewis rat at […]; settings: in vivo
[4] = Terminal half life in Lewis rat plasma at 0.5 mg/kg, iv; design: dose 0.5 mg/kg, route intravenous; settings: read-out: beta t1/2 (converted)

In the case of `Cc1ccc(C(=O)NC2CC2)cc1-c1ccc(C(=O)NCC2CC2)cc1`, the Vd [1] is reported as 0.6 L/kg, the clearance [2] is reported as 6 mL/min/kg and the bioavailability [3] is reported as 113%. The half-life [4] was 1.3 h.
